Drawing on US6809119B2, “Branched chain amino acid-dependent aminotransferase inhibitors and their use in the treatment of neurodegenerative diseases” (Warner-Lambert Company LLC, priority 2001, dated 2004), this text covers melting point and IC50 for twelve compounds.

Data set [1] has as its target T1, human Branched Chain Amino Acid Aminotransferase cytosolic form (hBCATc) (Homo sapiens, UniProt P54687).
T1 construct: inferred from purification on a Ni-charged chelating column with imidazole elution; made in house; host or cells: E. coli BL21(DE3)
T1 sequence (P54687 1-386): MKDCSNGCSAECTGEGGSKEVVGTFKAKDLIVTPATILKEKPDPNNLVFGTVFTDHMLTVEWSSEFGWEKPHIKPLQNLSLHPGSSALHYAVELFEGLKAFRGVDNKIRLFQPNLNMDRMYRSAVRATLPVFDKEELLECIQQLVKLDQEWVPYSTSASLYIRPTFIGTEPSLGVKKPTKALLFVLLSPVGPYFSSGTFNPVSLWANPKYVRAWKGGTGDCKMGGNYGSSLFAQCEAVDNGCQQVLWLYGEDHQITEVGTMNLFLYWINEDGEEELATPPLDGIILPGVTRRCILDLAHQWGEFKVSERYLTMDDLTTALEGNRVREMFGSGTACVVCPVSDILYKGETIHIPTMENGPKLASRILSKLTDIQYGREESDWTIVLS
Briefly: In vitro coupled enzyme assay, human BCAT cytosolic form. As to conditions: inhibition of recombinant human BCATc; coupled glutamate dehydrogenase/NADH assay, 37° C., pH 7.8; read-out: rhBCATc. It is filed as biochemical. The method, then: (§1) In vitro enzyme assay: human Branched Chain Amino Acid Aminotransferase cytosolic form (hBCATc) and mitochondrial form (hBCATm) as well as rat BCAT cytosolic form were assayed at 37° C. in 25 mM phosphate buffer pH 7.8. In addition, 2 mM DTT and 12.5 mM EDTA were added to the assay mixture. A coupling enzyme assay was used to monitor the production of glutamate. The formation of NADH from NAD+at […] was followed on a 96-well plate Molecular Devices plate reader. The following components were used in this coupled assay: 4 mM ADP, 1 mM NAD+, 750 μM L-Leucine, 500 μM a-ketoglutarate, 10 μM pyridoxal phosphate, 1 unit glutamate dehydrogenase, and 1.25 μg of the appropriate BCAT enzyme. Inhibitions by compounds were assayed by adding various concentrations to this coupled assay procedure as a DMSO stock up to a 5% v/v DMSO/buffer ratio.
(§2) Enzyme Preparation: humanBCATc and ratBCATc were expressed in BL21(DE3) cells. A growing culture of cells was induced with 1 mM IPTG at room temperature overnight. These cells were harvested by centrifugation at 10,000 g for 20 minutes. The supernatant was discarded, and the cells were stored at −80° C. until needed. The protein was purified by the following method. The cell paste was resuspended in extraction buffer (0.1 M phosphate, pH 8.0, with 0.01 M Tris-HCL and 5 mM TCEP and then lysed on a French Press at 1000 psi. The lysate was centrifuged at 10,000 g for 15 minutes, and the pellet was discarded. The supernatant was loaded onto a Hitrap Chelating column previously charged with 0.1 M NiSO4 and washed with 3 to 4 column volumes of extraction buffer. The column was then washed with 0.01 Tris, pH 7.5, 10% glycerol, 150 mM NaCl, 5 mM TCEP for two column volumes. The column was then further washed with two column volumes of 0.1 M phosphate, pH 6.0, 0.01 M Tris, 10% glycerol, and 750 mM NaCl. Finally, the column was washed with two column volumes of the same buffer plus 50 mM imidazole. The BCAT enzyme was then eluted with the same buffer but with 350 mM imidazole. The eluant was then dialyzed overnight against 10 mM phosphate buffer pH 8.0, 10% glycerol, and 5 mM TCEP. The dialyzed protein was then loaded onto a Q-sepharose column and eluted using a salt gradient. Active fractions were collected and further purified on a Superose-12 column to yield pure BCAT protein.

The target of data set [2] is T2, rat BCAT cytosolic form (rrBCATc) (Rattus norvegicus, UniProt P54690).
T2 construct: inferred from purification on a Ni-charged chelating column with imidazole elution; made in house; host or cells: E. coli BL21(DE3)
T2 sequence (P54690 1-411): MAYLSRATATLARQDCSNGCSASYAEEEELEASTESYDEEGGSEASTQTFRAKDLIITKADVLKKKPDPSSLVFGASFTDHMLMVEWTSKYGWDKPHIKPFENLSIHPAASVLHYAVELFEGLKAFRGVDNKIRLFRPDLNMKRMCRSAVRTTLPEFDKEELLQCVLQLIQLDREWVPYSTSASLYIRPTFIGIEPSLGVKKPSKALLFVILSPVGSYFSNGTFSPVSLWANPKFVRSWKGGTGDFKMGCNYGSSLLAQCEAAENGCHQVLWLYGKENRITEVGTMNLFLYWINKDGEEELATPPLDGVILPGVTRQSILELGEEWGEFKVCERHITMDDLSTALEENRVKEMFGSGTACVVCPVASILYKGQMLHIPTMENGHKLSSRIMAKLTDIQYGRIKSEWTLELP
Briefly: In vitro coupled enzyme assay, rat BCAT cytosolic form. It is filed as biochemical. The following applies: inhibition of recombinant rat BCATc; coupled glutamate dehydrogenase/NADH assay, 37° C., pH 7.8. As to the method: as §1, §2

The term melting point denotes the temperature of the solid-liquid transition. In turn, `O=C(NNS(=O)(=O)c1ccccc1)c1ccc(CCC2(O)CCCCC2)cc1` [Example 36] came in with a melting point of 158 to 159 °C. In addition, the IC50 in data set [1] was 15.4 µM. The IC50 in data set [2] amounted to 0.25 µM.

`CC(C)(C)c1ccc(C(=O)NNS(=O)(=O)c2ccccc2)cc1` [Example 24, 4-(1,1-Dimethylethyl)-benzoic acid, 2-(phenylsulfonyl)hydrazide] returned a melting point of 197 to 199 °C. The IC50 in data set [1] is 57 µM. For the same compound, in data set [2], the IC50 was 1.2 µM.

Turning to `O=C(NNS(=O)(=O)c1ccccc1)c1ccc(-c2ccccc2)cc1` [Example 25, [1,1′-Biphenyl]-4-carboxylic acid, 2-(phenylsulfonyl)hydrazide], the melting point fell in the range of 216 to 219 °C. In addition, the IC50 in data set [1] came out at 16 µM. The IC50 in data set [2] was determined as 1.5 µM.

Turning to `O=C(NNS(=O)(=O)c1ccccc1)c1ccc(C#Cc2ccccc2)cc1` [Example 32, 4-Phenacetylenyl-benzoic acid, 2-(phenylsulfonyl)hydrazide], the melting point was 175 °C (dec.). In addition, the IC50 in data set [1] amounted to 27.6 µM. In addition, the IC50 in data set [2] worked out at 1.3 µM.

`O=C(NNS(=O)(=O)c1ccccc1)c1ccc(CCc2ccccc2)cc1` [Example 33, Phenethyl-benzoic acid, 2-(phenylsulfonyl)hydrazide]: the melting point lay within 158 to 159 °C. In addition, in data set [1], the IC50 was determined as 14.3 µM. In data set [2], the IC50 was 0.25 µM.

For the compound `O=C(NNS(=O)(=O)c1ccccc1)c1ccc(OCc2ccccc2)cc1` [Example 29], the melting point was 159 to 160 °C. In addition, in data set [1], the IC50 stood at 26 µM. The IC50 in data set [2] turned out to be 48 µM.

On to `O=C(NNS(=O)(=O)c1ccccc1)c1ccc(NCc2ccccc2)cc1` [Example 16, 4-Benzylamino-benzoic acid 2-(phenylsulfonyl)hydrazide], for which the melting point fell in the range of 214 to 215 °C. The IC50 in data set [1] is 27 µM. Moreover, in data set [2], the IC50 was 4.4 µM.

Compound `CC(C)(C)CCc1ccc(C(=O)NNS(=O)(=O)c2ccccc2)cc1` [Example 38, 4-(3,3-Dimethyl-1-butyl)-benzoic acid, 2-(phenylsulfonyl)hydrazide] gave a melting point of 168 to 169 °C. Also, the IC50 in data set [1] turned out to be 9.5 µM. In addition, the IC50 in data set [2] was found to be 0.25 µM.

Regarding `O=C(NNS(=O)(=O)c1cccc(Br)c1)c1ccc(Oc2ccccc2)cc1` [Example 19, 4-Phenoxybenzoic acid, 2-[3-bromophenylsulfonyl]hydrazide], the IC50 worked out at 28 µM in data set [1] and 2.8 µM in data set [2].

For `CC(C)(C)C#Cc1ccc(C(=O)NNS(=O)(=O)c2ccccc2)cc1` [Example 37, 4-(3,3-Dimethyl-1-butynyl)benzoic acid, 2-(phenylsulfonyl)hydrazide], the melting point is 160 °C (dec.). Further, in data set [1], the IC50 amounted to 34.8 µM. Further, the IC50 in data set [2] was 4.3 µM.

With `O=C(NNS(=O)(=O)c1ccccc1)c1ccc(C#CC2(O)CCCCC2)cc1` [Example 35], the melting point lay in the range of 96 to 97 °C. Moreover, the IC50 in data set [1] is 43.5 µM. For the same compound, the IC50 in data set [2] is 2.2 µM.

`Nc1ccc(C(=O)NNS(=O)(=O)c2ccccc2)cc1` [Example 2, Benzoic acid, 4-amino-2-(phenylsulfonyl)hydrazide] had a melting point of 171 to 173 °C. In addition, the IC50 in data set [1] was 60 µM. Besides, the IC50 in data set [2] was determined as 28.1 µM.
